The source of these data is ChEMBL document CHEMBL1147706, “N-Alkyl-N-arylmethylpiperidin-4-amines: novel dual inhibitors of serotonin and norepinephrine reuptake” (Bioorg Med Chem Lett, 2006).

Assay [1] has as its target Sodium-dependent serotonin transporter (Homo sapiens, UniProt P31645). As to the kind of experiment: Displacement of [3H]citalopram from SERT.
The target in assay [2] is Sodium-dependent noradrenaline transporter (Homo sapiens, UniProt P23975). The assay is described as follows: Displacement of [3H]nisoxetine from NET.
Chain of Sodium-dependent noradrenaline transporter (P23975 whole entry): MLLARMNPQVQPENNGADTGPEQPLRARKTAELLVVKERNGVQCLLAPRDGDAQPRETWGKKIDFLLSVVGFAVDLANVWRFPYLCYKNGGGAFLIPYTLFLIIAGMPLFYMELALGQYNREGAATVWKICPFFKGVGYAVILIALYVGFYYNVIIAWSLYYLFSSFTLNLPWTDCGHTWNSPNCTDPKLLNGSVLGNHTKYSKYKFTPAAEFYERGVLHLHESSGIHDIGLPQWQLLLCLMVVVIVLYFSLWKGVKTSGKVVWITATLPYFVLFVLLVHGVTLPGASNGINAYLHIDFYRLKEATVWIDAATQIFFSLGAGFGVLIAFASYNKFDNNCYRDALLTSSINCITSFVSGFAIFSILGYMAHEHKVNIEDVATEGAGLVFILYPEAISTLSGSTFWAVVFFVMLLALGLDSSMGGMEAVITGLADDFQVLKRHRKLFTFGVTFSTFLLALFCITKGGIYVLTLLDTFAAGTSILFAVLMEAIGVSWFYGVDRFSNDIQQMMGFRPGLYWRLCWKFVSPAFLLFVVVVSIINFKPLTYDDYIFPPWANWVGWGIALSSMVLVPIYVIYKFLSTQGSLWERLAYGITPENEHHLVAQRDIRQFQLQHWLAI
In assay [3] the target is T1, Sodium-dependent dopamine transporter (Homo sapiens, UniProt Q01959). The assay is described as follows: Displacement of [3H]WIN-35 from DAT at 1 uM.
T1 sequence (Q01959 whole entry): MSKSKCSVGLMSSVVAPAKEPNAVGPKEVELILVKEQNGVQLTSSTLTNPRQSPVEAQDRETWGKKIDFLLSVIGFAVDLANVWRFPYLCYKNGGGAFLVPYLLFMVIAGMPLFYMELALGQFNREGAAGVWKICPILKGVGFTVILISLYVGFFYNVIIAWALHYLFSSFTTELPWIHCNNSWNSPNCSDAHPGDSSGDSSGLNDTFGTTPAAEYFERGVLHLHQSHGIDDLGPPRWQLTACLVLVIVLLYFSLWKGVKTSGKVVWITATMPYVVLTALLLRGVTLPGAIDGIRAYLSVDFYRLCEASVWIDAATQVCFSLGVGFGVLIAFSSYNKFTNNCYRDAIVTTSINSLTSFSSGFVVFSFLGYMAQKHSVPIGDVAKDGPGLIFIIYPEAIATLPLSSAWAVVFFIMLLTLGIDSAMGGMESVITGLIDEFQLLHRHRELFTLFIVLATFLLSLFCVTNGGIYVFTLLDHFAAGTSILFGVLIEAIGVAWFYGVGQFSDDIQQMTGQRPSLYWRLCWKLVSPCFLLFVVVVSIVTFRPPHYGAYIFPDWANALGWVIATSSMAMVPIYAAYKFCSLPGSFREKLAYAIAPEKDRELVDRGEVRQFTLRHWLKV
For assay [4], the target named is T1, Sodium-dependent dopamine transporter. The assay is described as follows: Displacement of [3H]WIN-35 from DAT.

Chain of Sodium-dependent serotonin transporter (P31645 whole entry): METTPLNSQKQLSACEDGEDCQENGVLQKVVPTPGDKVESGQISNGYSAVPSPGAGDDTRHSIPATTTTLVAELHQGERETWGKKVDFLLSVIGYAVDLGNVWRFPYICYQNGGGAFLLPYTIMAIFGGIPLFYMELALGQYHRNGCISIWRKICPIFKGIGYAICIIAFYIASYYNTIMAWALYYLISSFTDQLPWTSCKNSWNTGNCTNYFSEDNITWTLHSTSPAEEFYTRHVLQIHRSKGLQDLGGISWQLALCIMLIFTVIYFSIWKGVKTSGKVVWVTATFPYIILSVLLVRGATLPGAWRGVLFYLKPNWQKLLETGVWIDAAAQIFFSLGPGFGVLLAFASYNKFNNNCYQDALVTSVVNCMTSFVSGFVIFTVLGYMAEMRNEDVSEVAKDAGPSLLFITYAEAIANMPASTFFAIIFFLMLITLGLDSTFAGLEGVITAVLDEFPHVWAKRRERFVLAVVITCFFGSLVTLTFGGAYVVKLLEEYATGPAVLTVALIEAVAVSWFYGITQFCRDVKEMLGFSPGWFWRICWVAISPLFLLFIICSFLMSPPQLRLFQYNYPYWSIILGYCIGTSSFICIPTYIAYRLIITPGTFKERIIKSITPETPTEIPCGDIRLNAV

In the case of `Fc1ccc(CN(CC2CCC2)C2CCNCC2)c(C(F)(F)F)c1`, the Ki turned out to be 2.5 nM in assay [1] and 3.1 nM in assay [2].

Regarding `CC(C)CN(Cc1cccc(C(F)(F)F)c1)C1CCNCC1`, the results for the Ki in assay [1] and in assay [2] were 0.26 nM and 255 nM, respectively.

Consider `COCCCN(Cc1ccccc1C(F)(F)F)C1CCNCC1`, for which the inhibitory constant (Ki) in assay [1] was 2.2 nM; in assay [2], 6.8 nM. Besides, the inhibition in assay [3] was -8%.

For the compound `CCN(Cc1ccccc1C(F)(F)F)C1CCNCC1`, the figures for the Ki in assay [1] and in assay [2] were 8 nM and 61 nM, respectively. The inhibition in assay [3] was -2%.

Regarding `COc1ccccc1CN(CC(C)C)C1CCNCC1`, the inhibitory constant (Ki) was found to be 15 nM in assay [1] and 145 nM in assay [2]. In addition, the inhibition in assay [3] was 4%.

With `CC(C)CN(Cc1ccc(C(F)(F)F)cc1)C1CCNCC1`, the Ki in assay [1] was 0.07 nM; in assay [2] it was 300 nM.

`CC(C)CN(Cc1c(F)cccc1C(F)(F)F)C1CCNCC1`: the results for the Ki in assay [1] and in assay [2] were 4.1 nM and 6 nM, respectively.

On to `Cc1ccc(CN(CC(C)C)C2CCNCC2)c(C)c1`, for which the figures for the inhibition constant (Ki) in assay [1] and in assay [2] were 0.39 nM and 4.8 nM, respectively.

On to `CC(C)CN(Cc1cc(C(F)(F)F)ccc1Cl)C1CCNCC1`, for which the Ki is 9.6 nM in assay [1] and 175 nM in assay [2].

For the compound `CC(C)CN(Cc1cc(Cl)ccc1Cl)C1CCNCC1`, the Ki in assay [1] was 2.1 nM; in assay [2], 5.5 nM.

Turning to `CCC(CC)N(Cc1ccccc1C(F)(F)F)C1CCNCC1`, the results for the Ki in assay [1] and in assay [2] were 6.8 nM and 86 nM, respectively.

Turning to `COc1ccc(F)cc1CN(CC(C)C)C1CCNCC1`, the inhibitory constant (Ki) in assay [1] came out at 1.4 nM; in assay [2] it was 42.1 nM. For the same compound, the inhibition in assay [3] is -2%.

With `Fc1ccc(CN(CC2CC2)C2CCNCC2)c(C(F)(F)F)c1` [listing 1 of 2 here], the Ki in assay [1] is 0.8 nM; in assay [2], 6.1 nM.

As for `CCOCCN(Cc1ccc(F)cc1C(F)(F)F)C1CCNCC1`, the figures for the Ki in assay [1] and in assay [2] were 2.8 nM and 9.6 nM, respectively. Further, the inhibition in assay [3] is -3%.

As to `CC(C)CN(Cc1ccc(F)cc1F)C1CCNCC1`, the figures for the Ki in assay [1], in assay [2] and in assay [4] were 3.1 nM, 20 nM and 580 nM, respectively.

In assay [1], `CC(C)(O)CCN(Cc1ccc(F)cc1C(F)(F)F)C1CCNCC1` yielded a Ki of 5 nM. In addition, the inhibition in assay [3] is 1.3%.

`CC(C)(C)CN(Cc1ccccc1C(F)(F)F)C1CCNCC1`: the inhibitory constant (Ki) in assay [1] was 4.3 nM; in assay [2], 2.7 nM; in assay [4] it was 160 nM.

Regarding `CC(C)CN(Cc1ccc(C(F)(F)F)cc1F)C1CCNCC1`, the results for the inhibition constant (Ki) in assay [1], in assay [2] and in assay [4] were 5.8 nM, 2.2 nM and 120 nM, respectively.

Regarding `Cc1ccccc1CN(CC(C)C)C1CCNCC1`, the figures for the inhibition constant Ki in assay [1], in assay [2] and in assay [4] were 1.5 nM, 3.3 nM and 240 nM, respectively.

For `Fc1ccc(CN(CC2CC2)C2CCNCC2)c(C(F)(F)F)c1` [listing 2 of 2 here], the Ki in assay [1] came out at 0.4 nM; in assay [2] it was 6.5 nM.

As to `CC(C)OCCN(Cc1ccc(F)cc1C(F)(F)F)C1CCNCC1`, the values for the inhibition constant Ki in assay [1] and in assay [2] were 3 nM and 9.7 nM, respectively. Also, the inhibition in assay [3] came to 5%.

For the compound `CC(C)CN(Cc1ccc(F)cc1)C1CCNCC1`, the inhibition constant (Ki) in assay [1] was determined as 1.9 nM; in assay [2], 78 nM; in assay [4] it was 200 nM.

For `CC(C)CN(Cc1ccccc1C(F)(F)F)C1CCNCC1`, the Ki in assay [1] is 1.4 nM; in assay [2], 3.2 nM; in assay [4], 210 nM.

With `FC(F)(F)CCN(Cc1ccccc1C(F)(F)F)C1CCNCC1`, the figures for the inhibition constant Ki in assay [1] and in assay [2] were 2.8 nM and 9.8 nM, respectively.

On to `CCCN(Cc1ccccc1C(F)(F)F)C1CCNCC1`, for which the Ki amounted to 2.2 nM in assay [1] and 6.5 nM in assay [2].

As to `CC(C)CN(Cc1cccc(F)c1)C1CCNCC1`, the figures for the inhibitory constant (Ki) in assay [2] and in assay [4] were 43 nM and 86.5 nM, respectively.

With `Cc1cccc(CN(CC(C)C)C2CCNCC2)c1`, the values for the inhibition constant (Ki) in assay [1], in assay [2] and in assay [4] were 2.2 nM, 150 nM and 98 nM, respectively.

With `CC(C)CN(Cc1ccccc1F)C1CCNCC1`, the Ki in assay [2] came to 15 nM; in assay [4] it was 330 nM.

Take `CC(C)(C#N)CN(Cc1ccc(F)cc1C(F)(F)F)C1CCNCC1`: the inhibition constant Ki was determined as 4.2 nM in assay [1] and 15.9 nM in assay [2].

Turning to `N#CCCCN(Cc1ccccc1C(F)(F)F)C1CCNCC1`, the Ki in assay [1] worked out at 0.58 nM; in assay [2] it was 21 nM.

Regarding `FC(F)(F)OCCN(Cc1ccccc1C(F)(F)F)C1CCNCC1`, the results for the inhibition constant (Ki) in assay [1] and in assay [2] were 17 nM and 51 nM, respectively. Further, in assay [3], the inhibition was -8%.

In the case of `CC(C)CN(Cc1cccc(C#N)c1)C1CCNCC1`, the Ki in assay [1] was found to be 0.48 nM; in assay [2], 690 nM; in assay [4], 201 nM.

`CCC(CC)CN(Cc1ccccc1C(F)(F)F)C1CCNCC1`: the inhibition constant Ki was 6.9 nM in assay [1] and 6.1 nM in assay [2].

As for `CC(C)CN(Cc1cc(F)ccc1C(F)(F)F)C1CCNCC1`, the inhibition constant (Ki) in assay [1] was 7.9 nM; in assay [2], 3.4 nM.

With `CC(C)CN(Cc1ccccc1)C1CCNCC1`, the values for the inhibition constant Ki in assay [1] and in assay [2] were 8.4 nM and 91 nM, respectively.

Regarding `FC(F)(F)c1ccccc1CN(CC1CC1)C1CCNCC1`, the Ki is 1.5 nM in assay [1] and 6 nM in assay [2].

Turning to `N#CCCCN(Cc1ccc(F)cc1C(F)(F)F)C1CCNCC1`, the Ki in assay [1] turned out to be 0.4 nM; in assay [2] it was 13.3 nM. The inhibition in assay [3] was 10%.

In the case of `CCCN(Cc1ccc(F)cc1C(F)(F)F)C1CCNCC1`, the Ki in assay [1] is 0.8 nM; in assay [2], 3.6 nM.

On to `CCCCN(Cc1ccccc1C(F)(F)F)C1CCNCC1`, for which the Ki in assay [1] was 1.5 nM; in assay [2], 5.1 nM.

As for `CC(C)CN(Cc1ccccc1OC(F)(F)F)C1CCNCC1`, the results for the inhibition constant (Ki) in assay [1] and in assay [2] were 2.2 nM and 7.1 nM, respectively.

On to `CC(C)CN(Cc1cccc(C(F)(F)F)c1Cl)C1CCNCC1`, for which the Ki is 0.48 nM in assay [1] and 420 nM in assay [2].

`COCCN(Cc1ccccc1C(F)(F)F)C1CCNCC1`: the Ki was 2.5 nM in assay [1] and 8.3 nM in assay [2]. The inhibition in assay [3] was found to be 4%.

As for `CC(C)CN(Cc1ccccc1Cl)C1CCNCC1`, the Ki was determined as 1.6 nM in assay [1], 1.4 nM in assay [2] and 83 nM in assay [4].

Take `CCCCN(Cc1ccc(F)cc1C(F)(F)F)C1CCNCC1`: the Ki in assay [1] came out at 1.3 nM; in assay [2], 8.3 nM.

As to `CC(C)CN(Cc1ccccc1C#N)C1CCNCC1`, the inhibition constant Ki in assay [1] was determined as 1.2 nM; in assay [2], 42 nM.

As to `OCCN(Cc1ccc(F)cc1C(F)(F)F)C1CCNCC1`, the values for the inhibitory constant (Ki) in assay [1] and in assay [2] were 3.1 nM and 95.9 nM, respectively. For the same compound, the inhibition in assay [3] is -7%.

Turning to `FC(F)(F)c1ccccc1CN(C1CCCC1)C1CCNCC1`, the figures for the inhibition constant Ki in assay [1] and in assay [2] were 3.6 nM and 4.1 nM, respectively.

For the compound `CC(C)CN(Cc1ccc(C#N)cc1)C1CCNCC1`, the inhibition constant (Ki) was found to be 0.28 nM in assay [1] and 190 nM in assay [2].

Turning to `COc1ccc(CN(CC(C)C)C2CCNCC2)c(OC)c1`, the Ki in assay [1] was 2.2 nM; in assay [2], 1060 nM. Moreover, in assay [3], the inhibition came to 1.8%.

With `Cc1ccc(CN(CC(C)C)C2CCNCC2)cc1`, the figures for the Ki in assay [1] and in assay [2] were 0.99 nM and 69 nM, respectively.

Take `COCCCN(Cc1ccc(F)cc1C(F)(F)F)C1CCNCC1`: the Ki in assay [1] is 1.1 nM; in assay [2], 5.4 nM. For the same compound, in assay [3], the inhibition is -7%.

For the compound `CC(C)(C#N)CCN(Cc1ccc(F)cc1C(F)(F)F)C1CCNCC1`, the Ki in assay [1] was determined as 0.7 nM; in assay [2] it was 6.2 nM.

In the case of `CSc1ccccc1CN(CC(C)C)C1CCNCC1`, the inhibition constant (Ki) was found to be 1.1 nM in assay [1] and 3.3 nM in assay [2].

Take `CC(C)N(Cc1ccccc1C(F)(F)F)C1CCNCC1`: the Ki in assay [1] was 5.6 nM; in assay [2], 26 nM.

Turning to `CC(C)CN(Cc1ccc(F)cc1C(F)(F)F)C1CCNCC1`, the inhibition constant (Ki) was 0.3 nM in assay [1], 1.8 nM in assay [2] and 190 nM in assay [4].

Consider `N#CCCN(Cc1ccc(F)cc1C(F)(F)F)C1CCNCC1`, for which the Ki in assay [1] was 0.4 nM; in assay [2], 13.3 nM. Also, in assay [3], the inhibition was -4%.

On to `CC(C)CN(Cc1ccc(Cl)cc1Cl)C1CCNCC1`, for which the Ki in assay [1] is 0.96 nM; in assay [2], 2 nM; in assay [4], 230 nM.

Consider `FC(F)(F)CN(Cc1ccccc1C(F)(F)F)C1CCNCC1`, for which the Ki in assay [1] is 4.6 nM; in assay [2], 33 nM.

In the case of `CN(Cc1ccccc1C(F)(F)F)C1CCNCC1`, the inhibition in assay [3] is 3%.

Consider `CC(C)(O)CN(Cc1ccc(F)cc1C(F)(F)F)C1CCNCC1`, for which the Ki stood at 4 nM in assay [1] and 4.2 nM in assay [2]. Moreover, the inhibition in assay [3] is -8%.
